Measured values taken from US20210198256A1, “COMPOUNDS FOR THE DEGRADATION OF BRD9 OR MTH1” (C4 Therapeutics, Inc., priority 2018, published 2021).

Test system: SMARTCAR-MTH1-wt-HiBiT (Jurkat.7 cells)
Test: HiBit Lytic Assay (HiBit DC50, MTH1 degraders of Table 2)
Assay type: cell-based, human
Conditions: Jurkat.7 SMARTCAR-MTH1-wt-HiBiT cells, compound treatment time 4 hr, 11-point half log dose response
Experimental: Example 3. HiBit Lytic Assay
• Compound is made at 10 mM, half log dilution, 11 points. • MDR plates can also be ordered from Frontier with same format. • 1. Barcode a 384LDV plate (384-well Low Dead Volume Microplate, Labcyte LP-0200) (Echo compatible) on the left side. • 2. Transfer 13.6 μL of 10 mM compound into column 1 of LDV plate (Labcyte). • 3. Fill column 2-11 and column 23 of MDR plate with 9.30 μL of DMSO. • 4. Serial dilute 3.16 fold from column 1 to 2 by transferring 4.30 μL from column 1 to column 2, and so on to column 11. *Change tip in every dilution to prevent compound carryover effect! • 5. Seal the plate with Plate Sealer, then store the MDR plate at room temperature for short term storage and in −20° C. for long term storage.
• Cells are treated with 30 nL of each compound at 10 mM, half log dilution, 11 points with final concentration of 1000 nM or 833 nM, half log dilution, 11 points, in duplicates. Final DMSO concentration is 0.1%. • 1. Barcode the plates made on the left side and label the plates with silver marker. • 2. Dispense with the following scheme: • a. 30 nL of compound into corresponding wells in cell plates via Echo550 with “MDR32_HiBiT16_30 nL”. Top concentration will be 1000 nM. • 3. Seal the plate with Plate Sealer.
• Cells are dispensed at density specified in Cell Line Table in 384-well microplate. • 1. Culture cells to between 50-80% of confluence in sterile culture flasks of appropriate size. • 2. For Adherent Cell Lines: • a. Aspirate off growth media in culture flask, and wash off the Phenol Red media with 5 mL of 1×PBS. • b. Add 5 mL of Trypsin to the cells, incubate at 37° C. for 5 minutes. • c. Add 5 mL of growth media to the trypsinzed cells, and resuspend. • 3. Remove 10 μL of cells, and resuspend the cells with 10 μL of Trypan Blue. Insert the solution to counting chamber slide, and count the cells via cell counter. • 4. Adjust the cell concentration to specified plating density, and strain the cells with cell strainer. • 5. Dispense the cells via E1-ClipTip™ Electronic Multichannel Pipettes or Multidrop™ Combi Reagent Dispenser with Standard tube dispensing cassette: • a. Prime the cassette with 10-20 mL of ddH2O. • b. Prime the cassette with 10-20 mL of cells. • c. Dispense the cells at low speed for 30 μL/well in Corning® 384 Well Low Flange Black Flat Bottom Polystyrene TC-Treated Microplate. • d. Wash the cassette with 10-20 mL of ddH2O, follow by 10-20 mL of 70% EtOH, then again with 10-20 mL of ddH2O. • 6. Incubate the plates at 37° C.×compound treatment time.
• 1. If not already, bring Nano-Glo® HiBiT Lytic Buffer to room temperature. • 2. Determine the amount of reagent needed. A volume of reagent equal to the volume of media in the well should be added (i.e. 30 μL of cells will need 30 μL of HiBiT Lytic reagent). • 3. Into a given volume of buffer, dilute the substrate 50-fold and the LgBiT protein 100-fold. For example, to make 10 ml of reagent, add the following: • 10 ml Nano-Glo® HiBiT Lytic Buffer • 200 μl Nano-Glo® HiBiT Lytic Substrate • 100 μl LgBiT Protein • The reagent should be reconstituted immediately before use. However, once reconstituted, it should take about 4 hours for the activity to decrease 10%. • 4. Cool down the cell plate to room temperature for 10-15 minutes without lid. • 5. Dispense the HiBiT Lytic Reagent via E1-ClipTip™ Electronic Multichannel Pipettes or Multidrop™ Combi Reagent Dispenser with Standard tube dispensing cassette: • a. Prime the cassette with 10-20 mL of ddH2O. • b. Prime the cassette with 10-20 mL of CTG 2.0. • c. Dispense the HiBiT Lytic Reagent at medium speed for 30 μL/well in cell plate to column 1-23 (column 24 will be used as plate background). • d. Wash the cassette with 10-20 mL of ddH2O, follow by 10-20 mL of 70% EtOH, then again with 10-20 mL of ddH2O. • 6. Incubate the cell plate at room temperature for 10 minutes without lid. • 7. […]

Row | DC50 [µM] | SMILES
1 | < 0.1 | CNc1c(C(=O)NC2CC2)cnc2cc(C(F)(F)F)c(-c3ccc(C(=O)NCCCCn4cc(C(C)Nc5cccc6c5C(=O)N(C5CCC(=O)NC5=O)C6=O)nn4)c(F)c3)cc12 (stereo not shown) [Compound 430, N-cyclopropyl-6-[4-[4-[4-[1-[[2-(2,6-dioxo-3-piperidyl)-1,3-dioxo-isoindolin-4-yl]amino]ethyl]triazol-1-yl]butylcarbamoyl]-3-fluoro-phenyl]-4-(methylamino)-7-(trifluoromethyl)quinoline-3-carboxamide]
2 | < 0.1 | COc1ccc(CNc2c(C(=O)NC3CC3)cnc3cc(OC)c(-c4ccc(C(=O)NCCCCn5cc(CNc6cccc7c6C(=O)N(C6CCC(=O)NC6=O)C7=O)nn5)nc4)cc23)cc1 (stereo not shown) [Compound 395, N-cyclopropyl-6-[6-[4-[4-[[[2-(2,6-dioxo-3-piperidyl)-1,3-dioxo-isoindolin-4-yl]amino]methyl]triazol-1-yl]butylcarbamoyl]-3-pyridyl]-7-methoxy-4-[(4-methoxyphenyl)methylamino]quinoline-3-carboxamide]
3 | < 0.1 | CNc1c(C(=O)NC2CC2)cnc2cc(C(F)(F)F)c(-c3ccc(C(=O)NCCCCn4cc(C(C)(C)Nc5cccc6c5C(=O)N(C5CCC(=O)NC5=O)C6=O)nn4)c(F)c3)cc12 (stereo not shown) [Compound 435, N-cyclopropyl-6-(4-((4-(4-(2-((2-(2,6-dioxopiperidin-3-yl)-1,3-dioxoisoindolin-4-yl)amino)propan-2-yl)-1H-1,2,3-triazol-1-yl)butyl)carbamoyl)-3-fluorophenyl)-4-(methylamino)-7-(trifluoromethyl)quinoline-3-carboxamide]
4 | < 0.1 | CC(Nc1cccc2c1C(=O)N(C1CCC(=O)NC1=O)C2=O)c1cn(CCCCNC(=O)c2ccc(-c3cc4c(Nc5ccccc5)c(C(=O)NC5CC5)cnc4cc3F)cc2F)nn1 (stereo not shown) [Compound 433, N-cyclopropyl-6-(4-((4-(4-(1-((2-(2,6-dioxopiperidin-3-yl)-1,3-dioxoisoindolin-4-yl)amino)ethyl)-1H-1,2,3-triazol-1-yl)butyl)carbamoyl)-3-fluorophenyl)-7-fluoro-4-(phenylamino)quinoline-3-carboxamide]
5 | < 0.1 | CNc1c(C(=O)NC2CC2)cnc2cc(F)c(-c3ccc(C(=O)NCCCCn4cc(C(C)(C)Nc5cccc6c5C(=O)N(C5CCC(=O)NC5=O)C6=O)nn4)c(F)c3)cc12 (stereo not shown) [Compound 436, N-cyclopropyl-6-(4-((4-(4-(2-((2-(2,6-dioxopiperidin-3-yl)-1,3-dioxoisoindolin-4-yl)amino)propan-2-yl)-1H-1,2,3-triazol-1-yl)butyl)carbamoyl)-3-fluorophenyl)-7-fluoro-4-(methylamino)quinoline-3-carboxamide]
6 | < 0.1 | CNc1c(C(=O)NC2CC2)cnc2cc(F)c(-c3ccc(C(=O)NCCCCNC(=O)CCc4cccc5c4CN(C4CCC(=O)NC4=O)C5=O)c(F)c3)cc12 (stereo not shown) [Compound 419, N-cyclopropyl-6-[4-[4-[3-[2-(2,6-dioxo-3-piperidyl)-1-oxo-isoindolin-4-yl]propanoylamino]butylcarbamoyl]-3-fluoro-phenyl]-7-fluoro-4-(methylamino)quinoline-3-carboxamide]
7 | < 0.1 | CNc1c(C(=O)NC2CC2)cnc2cc(C(F)(F)F)c(-c3ccc(C(=O)NCCCCCCCCc4ccc5c(n4)CN(C4CCC(=O)NC4=O)C5=O)c(F)c3)cc12 (stereo not shown) [Compound 409, N-cyclopropyl-6-[4-[8-[6-(2,6-dioxo-3-piperidyl)-5-oxo-7H-pyrrolo[3,4-b]pyridin-2-yl]octylcarbamoyl]-3-fluoro-phenyl]-4-(methylamino)-7-(trifluoromethyl)quinoline-3-carboxamide]
8 | < 1 | CNc1c(C(=O)NC2CC2)cnc2cc(C(F)(F)F)c(-c3ccc(C(=O)NCCCCn4cc(C(C)Nc5cccc6c5C(=O)N(C5CCC(=O)NC5=O)C6=O)nn4)nc3)cc12 (stereo not shown) [Compound 431, N-cyclopropyl-6-(6-((4-(4-(1-((2-(2,6-dioxopiperidin-3-yl)-1,3-dioxoisoindolin-4-yl)amino)ethyl)-1H-1,2,3-triazol-1-yl)butyl)carbamoyl)pyridin-3-yl)-4-(methylamino)-7-(trifluoromethyl)quinoline-3-carboxamide]

The remaining lines, values behind:

Row | SMILES | DC50 [µM]
9 | CNC(=O)c1cnc2ccc(-c3ccc(C(=O)NCCCCNC(=O)CCc4cccc5c4CN(C4CCC(=O)NC4=O)C5=O)cc3)cc2c1Nc1ccccc1 (stereo not shown) [Compound 374, 4-anilino-6-[4-[4-[3-[2-(2,6-dioxo-3-piperidyl)-1-oxo-isoindolin-4-yl]propanoylamino]butylcarbamoyl]phenyl]-N-methyl-quinoline-3-carboxamide] | < 0.1
10 | CNC(=O)c1cnc2cc(OC)c(-c3ccc(C(=O)NCCCCNC(=O)CNc4cccc5c4C(=O)N(C4CCC(=O)NC4=O)C5=O)cc3)cc2c1Nc1ccccc1 (stereo not shown) [Compound 344, 6-(4-((4-(2-((2-(2,6-dioxopiperidin-3-yl)-1,3-dioxoisoindolin-4-yl)amino)acetamido)butyl)carbamoyl)phenyl)-7-methoxy-N-methyl-4-(phenylamino)quinoline-3-carboxamide] | < 0.1
11 | CNC(=O)c1cnc2ccc(-c3ccc(C(=O)NCCCNC(=O)CNc4cccc5c4C(=O)N(C4CCC(=O)NC4=O)C5=O)cc3)cc2c1Nc1ccccc1 (stereo not shown) [Compound 472, 6-(4-((3-(2-((2-(2,6-dioxopiperidin-3-yl)-1,3-dioxoisoindolin-4-yl)amino)acetamido)propyl)carbamoyl)phenyl)-N-methyl-4-(phenylamino)quinoline-3-carboxamide] | < 0.1
12 | CNC(=O)c1cnc2ccc(NCCCCCCCCCCNC(=O)CNc3cccc4c3CN(C3CCC(=O)NC3=O)C4=O)cc2c1Nc1ccccc1 (stereo not shown) [Compound 441, 6-((10-(2-((2-(2,6-dioxopiperidin-3-yl)-1-oxoisoindolin-4-yl)amino)acetamido)decyl)amino)-N-methyl-4-(phenylamino)quinoline-3-carboxamide] | < 0.1
13 | NC(=O)c1cnc2ccc(-c3ccc(C(=O)NCCCCNC(=O)CNc4cccc5c4CN(C4CCC(=O)NC4=O)C5=O)cc3)cc2c1Nc1ccccc1 (stereo not shown) [Compound 303, 4-anilino-6-[4-[4-[[2-[[2-(2,6-dioxo-3-piperidyl)-1-oxo-isoindolin-4-yl]amino]acetyl]amino]butylcarbamoyl]phenyl]quinoline-3-carboxamide] | < 0.1
14 | CNC(=O)c1cnc2ccc(NCCCCCCCCCCNC(=O)CNc3cccc4c3C(=O)N(C3CCC(=O)NC3=O)C4=O)cc2c1Nc1ccccc1 (stereo not shown) [Compound 451, 6-((10-(2-((2-(2,6-dioxopiperidin-3-yl)-1,3-dioxoisoindolin-4-yl)amino)acetamido)decyl)amino)-N-methyl-4-(phenylamino)quinoline-3-carboxamide] | < 0.1
15 | NC(=O)c1cnc2ccc(NCCCCCCCCCCNC(=O)COc3cccc4c3C(=O)N(C3CCC(=O)NC3=O)C4=O)cc2c1Nc1ccccc1 (stereo not shown) [Compound 465, 6-((10-(2-((2-(2,6-dioxopiperidin-3-yl)-1,3-dioxoisoindolin-4-yl)oxy)acetamido)decyl)amino)-4-(phenylamino)quinoline-3-carboxamide] | < 0.1
16 | CC(C)NC(=O)c1cnc2ccc(NCCCCCCCCCCNC(=O)COc3cccc4c3C(=O)N(C3CCC(=O)NC3=O)C4=O)cc2c1Nc1ccccc1 (stereo not shown) [Compound 457, 6-((10-(2-((2-(2,6-dioxopiperidin-3-yl)-1,3-dioxoisoindolin-4-yl)oxy)acetamido)decyl)amino)-N-isopropyl-4-(phenylamino)quinoline-3-carboxamide] | < 0.1
